Reference: PubChem BioAssay (NCI)
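Step 1: Grow cells in 96-well plates. Step 2: Expose to compound for 48 hours at 5 concentrations. Step 3: Interpolate endpoints linearly; if unreached, use highest concentration. GI50 = concentration required for 50% inhibition of growth. At the TGI there is no net growth.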

What was measured:
Assay in all cases: growth of human tumour cells (NCI), 48 h
A498 renal = system: A498 renal
HOP-92 NSCLC = system: HOP-92 NSCLC
NCI-H226 lung = system: NCI-H226 lung
PC-3 prostate = system: PC-3 prostate
SF-268 CNS = system: SF-268 CNS
SF-539 CNS = system: SF-539 CNS
SK-MEL-2 melanoma = system: SK-MEL-2 melanoma
TK-10 renal = system: TK-10 renal
MCF7 breast = system: MCF7 breast
NCI-H522 lung = system: NCI-H522 lung

Compound	GI50 (A498 renal) [µM]	TGI (A498 renal) [µM]	GI50 (HOP-92 NSCLC) [µM]	TGI (HOP-92 NSCLC) [µM]	GI50 (NCI-H226 lung) [µM]	TGI (NCI-H226 lung) [µM]	GI50 (PC-3 prostate) [µM]	TGI (PC-3 prostate) [µM]	GI50 (SF-268 CNS) [µM]	TGI (SF-268 CNS) [µM]	GI50 (SF-539 CNS) [µM]	TGI (SF-539 CNS) [µM]	GI50 (SK-MEL-2 melanoma) [µM]	TGI (SK-MEL-2 melanoma) [µM]	GI50 (TK-10 renal) [µM]	TGI (TK-10 renal) [µM]	TGI (MCF7 breast) [µM]	TGI (NCI-H522 lung) [µM]	GI50 (MCF7 breast) [µM]	GI50 (NCI-H522 lung) [µM]
CCCCCCCCCCCCCC[n+]1ccc(C)cc1	2.93	12.6	0.577	3.3	0.915	5.59	0.455	2.63	0.447	1.7	1.77	4.72	1.33	2.83	0.627	2.11	–	–	–	–
CC(C)c1ccccc1SCc1cc(=O)cc(CSc2ccccc2C(C)C)o1	–	40.9	–	36.7	–	41.7	–	30.7	–	33.4	–	–	–	34.5	–	38.7	57.5	–	–	–
C=C1C(=O)OC2CC(C)C3C4OC4C(O)C3(C)C(O)C12 (stereo not drawn)	–	44.4	–	61.9	–	> 68	–	–	–	71.7	–	45.6	–	72.7	–	–	66.7	26.4	–	–
CC12CCC(CC1)C(C)(C)O2	–	99.6	–	95.2	6.25	42.4	–	–	–	119	–	90.1	–	118	–	–	27.9	77.3	–	–
O=C1/C(=C/c2ccc(O)cc2)COc2ccc(O)c(O)c21	–	–	2.33	7.25	8.37	34.8	2.48	13	2.72	> 100	1.82	4.97	6.21	38.6	3.12	> 100	> 100	0.596	2.18	0.187
CSc1nc(N)c2c(-c3ccccc3)c3c(nc2n1)CCCC3	–	–	–	–	–	–	–	> 100	–	–	–	> 100	–	–	–	> 100	> 100	–	–	–
